Experimental data taken from patent US8975259B2, “Compositions and methods for inhibiting G protein signaling” (University of Rochester, priority 2007, dated 2015).
pIC50: −log10 of the molar value. Entries after “also recorded” stand apart in the source; their conditions may differ. Where two headings read alike, the source gives them in different places.

Assays:
[1] = tested on: differentiated HL60 cells; experiment: fMLP-induced chemotaxis of differentiated HL60 cells (Boyden chamber); format: cell-based, human; conditions: 10 μM compound, 250 nM fMLP; result in words
Experimental: Same as A with purified human neutrophils.
(§1) Differentiated HL60 cells (200 k) were pretreated with 10 μM concentrations of the indicated compound, challenged with 250 nM fMLP, and assayed for chemotaxis in a Boyden chamber for 1 h at 37° C. […] Chemotaxis was quantified as above by subtracting out background cells (0-10 cells) in the absence of chemoattractant to obtain total transmigrated cells (−100 cells GM-CSF+vehicle) and represented as the percentage of GM-CSF-treated control cells. No statistically significant difference from control was seen by ANOVA. […] Primary human neutrophils were isolated from whole blood to ≧80% purity. Neutrophils (2×10^5) were pretreated with gallein (10 μM), M119 (10 μM), M119B (10 μM), or wortmannin (wtmn.) (1 μM) and then challenged with 250 nM fMLP or 10 nM IL-8 to evaluate chemotaxis in a Boyden chamber for 1 h at 37° C. […] NS, not statistically different from control. […] Primary human neutrophils were isolated and treated (250 nM fMLP±gallein) as described above. Chemotaxis was quantified as above by subtracting out background cells to obtain total transmigrated cells and represented as the percentage of fMLP-treated control cells. Data shown are pooled from two independent experiments, each in duplicate, ±S.E.M.
Chemotaxis was assayed using a Boyden chamber (Neuro Probe, Gaithersburg, Md.) using 3-μm polyvinylpyrrolidone-free polycarbonate filters (Neuro Probe). HL60 cells (differentiated for 4 days) were washed with and resuspended in HBSS containing 1% bovine serum albumin to a final concentration of 1×10^6 cells/ml. Primary human neutrophils were washed and resuspended in NaCl buffer (140 mM NaCl, 4 mM KCl, 10 mM D-glucose, 10 mM HEPES, pH 7.4, 1 mM MgCl2, and 1 mM CaCl2) to a final concentration of 1×10^6 cells/mi. Chemoattractant [1 μM granulocyte-macrophage-colony stimulating factor (GM-CSF), 10 nM IL-8, or 250 nM fMLP; Sigma Aldrich] was added to the bottom chamber in HBSS containing 1% bovine serum albumin.

[2] = tested on: differentiated HL60 cells; experiment: GM-CSF-induced chemotaxis of differentiated HL60 cells (Boyden chamber); format: cell-based, human; conditions: 10 μM compound, 1 μM GM-CSF; result in words
Experimental: Differentiated HL60 cells (200 k) were pretreated with 10 μM concentrations of the indicated compound, challenged with 250 nM fMLP, and assayed for chemotaxis in a Boyden chamber for 1 h at 37° C. […] Chemotaxis was quantified as above by subtracting out background cells (0-10 cells) in the absence of chemoattractant to obtain total transmigrated cells (−100 cells GM-CSF+vehicle) and represented as the percentage of GM-CSF-treated control cells. No statistically significant difference from control was seen by ANOVA. […] Primary human neutrophils were isolated from whole blood to ≧80% purity. […] Chemotaxis was quantified as above by subtracting out background cells to obtain total transmigrated cells and represented as the percentage of fMLP-treated control cells. […]
Chemotaxis was assayed using a Boyden chamber (Neuro Probe, Gaithersburg, Md.) using 3-μm polyvinylpyrrolidone-free polycarbonate filters (Neuro Probe). […] Chemotactic HL60 cells were scored by counting three microscope fields and subtracting the number of cells from fMLP wells as background. […] For all the small molecules, effects of the compounds on chemokinesis was analyzed by measuring chemotaxis in the presence of 250 nM fMLP in both the upper and lower chambers of the Boyden Chamber and measuring changes in transwell migration. […]

[3] = tested on: primary human neutrophils; experiment: fMLP-induced chemotaxis of primary human neutrophils (Boyden chamber); format: cell-based; conditions: 250 nM fMLP; for effect on fMLP-induced chemotaxis: 10 μM compound or 1 μM wortmannin, result in words
Experimental: as §1
Chemotaxis was assayed using a Boyden chamber (Neuro Probe, Gaithersburg, Md.) using 3-μm polyvinylpyrrolidone-free polycarbonate filters (Neuro Probe). HL60 cells (differentiated for 4 days) were washed with and resuspended in HBSS containing 1% bovine serum albumin to a final concentration of 1×10^6 cells/ml. Primary human neutrophils were washed and resuspended in NaCl buffer (140 mM NaCl, 4 mM KCl, 10 mM D-glucose, 10 mM HEPES, pH 7.4, 1 mM MgCl2, and 1 mM CaCl2) to a final concentration of 1×10^6 cells/mi. Chemoattractant [1 μM granulocyte-macrophage-colony stimulating factor (GM-CSF), 10 nM IL-8, or 250 nM fMLP; Sigma Aldrich] was added to the bottom chamber in HBSS containing 1% bovine serum albumin. Cell suspensions (0.2×10^6 cells/well) were added to the top wells of the Boyden chamber and allowed to migrate for 1 h at 37° C. When applicable, cell suspensions were preincubated for […] with small-molecule inhibitors (in DMSO) at the indicated concentrations, and the bottom chamber was adjusted to the same concentration of small molecule. All treatments contained the same final concentration of DMSO. […] Chemotactic HL60 cells were scored by counting three microscope fields and subtracting the number of cells from fMLP wells as background. […] For all the small molecules, effects of the compounds on chemokinesis was analyzed by measuring chemotaxis in the presence of 250 nM fMLP in both the upper and lower chambers of the Boyden Chamber and measuring changes in transwell migration. […]

Gβ1γ2 = Gβ1γ2 (UniProt P54311+P63212); experiment: Competition phage ELISA: inhibition of SIGK-phage binding to immobilized biotinylated Gβ1γ2; set-up: made in house; host or cells: Sf9 insect cells (baculovirus; co-expressed with BirA and (His)6-Gαi1, from which βγ was eluted); species or system rat
Experimental: Phage ELISA assays used to assess peptide binding to wild-type and mutant b-βγ were performed according to standard methods (Smrcka and Scott (2002) Methods Enzymol. 344:557-76). Briefly, 1 μg streptavidin was immobilized in the well of a […] overnight at 4° C. The wells were blocked with 100 μL of 2% bovine serum albumin (BSA) in Tris-buffered saline (TBS) for 1 hour at 4° C. followed by three washes of IX TBS/0.5% TWEEN®. […] The wells were washed, followed by the addition of IxIO^6 to IxIO^10 phage particles and incubated at 4° C. for 3 hours. The wells were then washed six times with TBS/0.5% TWEEN® followed by addition of 40 μL of 1:5000 dilution of anti-M13 antibody (Pharmacia, Uppsala, Sweden) and incubated at room temperature for 1 hour. The wells were washed, followed by the addition of 40 μL of (2,2′-Azino-bis (3-ethylbenzthiazoline)-6-sulfonic acid (ABTS) and the colorimetric reaction was monitored at 405 nm. Nonspecific binding was subtracted for each reading.
A phage ELISA assay was used to determine whether small molecules identified in the computational screen could interact with the Gβy protein interaction surface. […] The screen was based on a reduction in the optical density (OD) of wells containing Gβγ subunits and phage. […] Three background wells contained no βy subunits.
As disclosed herein, biotinylated Gβy subunits were immobilized on the surface of a 96-well plate coated with streptavidin, phage displaying Gβγ-binding peptides were subsequently added and binding in the presence and absence of test compounds detected with an anti-phage antibody.
The phage ELISA assay was used to rapidly screen the ability of compounds to bind to the protein interaction “hot spot” based on the method of Scott et. al (Scott et al., 2001). This assay is performed in the presence of detergent (0.5% Tween) to eliminate non-specific compound aggregation artifacts.
Compounds/DMSO and 0.1×10^10 phage were added simultaneously and subsequently incubated for 1 h at room temperature. Plates were then washed with 1× Tris-buffered saline/0.5% Tween 20 and incubated with anti-M13, HRP-conjugated antibody (Amersham, Chalfont St. Giles, Buckinghamshire, UK). Phage binding was determined by monitoring A405 upon addition of 2,2′-azino-bis(3-ethylbenzothiazoline-6-sulfonic acid) (Sigma Aldrich).

| Structure (SMILES) | effect on fMLP-induced chemotaxis [1] | effect on GM-CSF-induced chemotaxis [2] | effect on fMLP-induced chemotaxis [3] | pIC50 (Gβ1γ2; ELISA, Table 19) | IC50 (Gβ1γ2; IC50 μM, Table 18, compounds identified in Elisa screen) | pIC50 (Gβ1γ2; IC50, Table 8, last row) | pIC50 (Gβ1γ2; IC50 in phage ELISA (SIGK competition)) | pIC50 ([3]; Homo sapiens, Neutrophil, read-out: IC50 for block of fMLP-dependent chemotaxis) | pIC50 (Gβ1γ2) | apparent affinity for Gβ1γ2 relative to M119 (Gβ1γ2) |
| --- | --- | --- | --- | --- | --- | --- | --- | --- | --- | --- |
| O=C(O)C1CCCCC1c1c2ccc(=O)c(O)c-2oc2c(O)c(O)ccc12 (stereo not drawn) [Compound M119, cyclohexanecarboxylic acid, 2-(4,5,6-trihydroxy-3-oxo-3H-xanthen-9-yl)-(9cl)] | significantly blunted migration; also recorded: inhibited | Neither M119 nor gallein blocked | significantly inhibited | 6.70 | 0.2 µM | 7.00 | 6.70 |  |  |  |
| O=C(O)c1ccccc1-c1c2ccc(=O)c(O)c-2oc2c(O)c(O)ccc12 (racemic) [Gallein] | inhibited | Neither M119 nor gallein blocked | significantly inhibited |  |  |  |  | ~5.30 | 6.70 |  |
| O=C(O)C1CCCCC1c1c2ccc(=O)cc-2oc2cc(O)ccc12 (stereo not drawn) [Compound M119B] | no effect on migration |  | no affect |  |  |  |  |  |  | 1/1000 |
